In ChEMBL document CHEMBL1201862, “PubChem BioAssay data set” (2004):
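Assay format: 96-well plates, 48-hour exposure. GI50 is the concentration that inhibits growth by half.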 Activity calls are given as the source filed them. Cut-off read from the data, not from the text of the source: active = GI50 up to about 1.1 µM and inactive = higher.

Key:
Experiment in all cases: inhibition of tumour cell growth, NCI panel, 48 h
[1] = tested on: LOX IMVI
[2] = tested on: SR
[3] = tested on: PC-3
[4] = tested on: HCC 2998
[5] = tested on: MDA-MB-435
[6] = tested on: K562
[7] = tested on: UO-31
[8] = tested on: MDA-MB-231
[9] = tested on: NCI-H460
[10] = tested on: SF-295
[11] = tested on: SK-MEL-5
[12] = tested on: SF-268
[13] = tested on: SN12C
[14] = tested on: HCT-116
[15] = tested on: OVCAR-3
[16] = tested on: 786-0
[17] = tested on: M14
[18] = tested on: T47D
[19] = tested on: EKVX
[20] = tested on: MCF7
[21] = tested on: HL-60
[22] = tested on: NCI-H23
[23] = tested on: KM12
[24] = tested on: UACC-257
[25] = tested on: OVCAR-8
[26] = tested on: CCRF-CEM
[27] = tested on: Malme-3M
[28] = tested on: SF-539
[29] = tested on: HOP-92
[30] = tested on: HCT-15
[31] = tested on: OVCAR-5
[32] = tested on: A549
[33] = tested on: HT-29
[34] = tested on: SK-OV-3
[35] = tested on: SNB-75
[36] = tested on: NCI/ADR-RES
[37] = tested on: SNB-19
[38] = tested on: ACHN
[39] = tested on: UACC-62
[40] = tested on: DU-145
[41] = tested on: OVCAR-4
[42] = tested on: SK-MEL-28
[43] = tested on: RPMI-8226
[44] = tested on: MOLT-4
[45] = tested on: SW-620
[46] = tested on: SK-MEL-2
[47] = tested on: TK-10
[48] = tested on: COLO 205
[49] = tested on: CAKI-1
[50] = tested on: RXF 393
[51] = tested on: HOP-62
[52] = tested on: IGROV-1
[53] = tested on: MDA-N
[54] = tested on: Hs-578T
[55] = tested on: A498
[56] = tested on: U-251
[57] = tested on: NCI-H226
[58] = tested on: NCI-H522

In the case of Cc1noc(C)c1/N=N/c1ccc2nonc2c1N, the GI50 [1] is reported as > 100 µM (inactive), the GI50 [2] is reported as > 100 µM (inactive) and the GI50 [3] is reported as > 100 µM (inactive). The GI50 [4] was > 100 µM (inactive), the GI50 [5] was > 100 µM (inactive) and the GI50 [6] was > 10 µM (inactive). The GI50 [7] was 21 µM (inactive), the GI50 [8] was > 100 µM (inactive) and the GI50 [9] was > 100 µM (inactive). The GI50 [10] was 67.3 µM (inactive), the GI50 [11] was > 100 µM (inactive) and the GI50 [12] was > 100 µM (inactive). The GI50 [13] was > 100 µM (inactive), the GI50 [14] was > 100 µM (inactive) and the GI50 [15] was > 100 µM (inactive). For the same compound, the GI50 [16] was 42.4 µM (inactive), the GI50 [17] was > 100 µM (inactive) and the GI50 [18] was > 100 µM (inactive). The GI50 [19] was 2.66 µM (inactive), the GI50 [20] was > 100 µM (inactive) and the GI50 [21] was > 100 µM (inactive). For the same compound, the GI50 [22] was 46.5 µM (inactive), the GI50 [23] was > 100 µM (inactive) and the GI50 [24] was > 100 µM (inactive). The GI50 [25] was > 100 µM (inactive), the GI50 [26] was > 100 µM (inactive) and the GI50 [27] was > 100 µM (inactive). For the same compound, the GI50 [28] was 23.4 µM (inactive), the GI50 [29] was 87.7 µM (inactive) and the GI50 [30] was > 100 µM. The GI50 [31] was > 100 µM (inactive), the GI50 [32] was > 100 µM (inactive) and the GI50 [33] was > 100 µM (inactive). The GI50 [34] was 36.7 µM (inactive), the GI50 [35] was 15.1 µM (inactive) and the GI50 [36] was > 100 µM (inactive). For the same compound, the GI50 [37] was 26.1 µM (inactive), the GI50 [38] was > 100 µM (inactive) and the GI50 [39] was > 100 µM (inactive). The GI50 [40] was > 100 µM (inactive), the GI50 [41] was > 100 µM (inactive) and the GI50 [42] was > 100 µM (inactive). The GI50 [43] was > 100 µM (inactive), the GI50 [44] was > 100 µM (inactive) and the GI50 [45] was > 100 µM (inactive). The GI50 [46] was > 100 µM (inactive), the GI50 [47] was 58.7 µM (inactive) and the GI50 [48] was > 100 µM (inactive). The GI50 [49] was > 100 µM (inactive), the GI50 [50] was > 100 µM (inactive) and the GI50 [51] was 79.4 µM (inactive). For the same compound, the GI50 [52] was > 100 µM (inactive) and the GI50 [53] was > 100 µM (inactive).
In the case of C=C(Br)C[N+]12CN3CN(CN(C3)C1)C2, the GI50 [1] is reported as > 100 µM (inactive), the GI50 [2] is reported as > 100 µM (inactive) and the GI50 [3] is reported as > 100 µM (inactive). The GI50 [4] was > 100 µM (inactive), the GI50 [5] was > 100 µM (inactive) and the GI50 [6] was > 100 µM (inactive). The GI50 [7] was > 100 µM (inactive), the GI50 [8] was > 100 µM (inactive) and the GI50 [9] was > 100 µM (inactive). For the same compound, the GI50 [10] was > 100 µM (inactive), the GI50 [54] was > 100 µM (inactive) and the GI50 [11] was > 100 µM (inactive). For the same compound, the GI50 [12] was > 100 µM (inactive), the GI50 [13] was > 100 µM (inactive) and the GI50 [14] was > 100 µM (inactive). The GI50 [15] was > 100 µM (inactive), the GI50 [16] was > 100 µM (inactive) and the GI50 [17] was > 100 µM (inactive). The GI50 [18] was > 100 µM (inactive), the GI50 [19] was > 100 µM (inactive) and the GI50 [21] was > 100 µM (inactive). The GI50 [22] was > 100 µM (inactive), the GI50 [23] was > 100 µM (inactive) and the GI50 [55] was > 100 µM (inactive). For the same compound, the GI50 [56] was > 100 µM (inactive), the GI50 [24] was > 100 µM (inactive) and the GI50 [25] was > 100 µM (inactive). For the same compound, the GI50 [26] was > 100 µM (inactive), the GI50 [27] was > 100 µM (inactive) and the GI50 [28] was > 100 µM (inactive). The GI50 [29] was > 100 µM (inactive), the GI50 [30] was > 100 µM and the GI50 [31] was > 100 µM (inactive). For the same compound, the GI50 [57] was > 100 µM (inactive), the GI50 [32] was > 100 µM (inactive) and the GI50 [33] was > 100 µM (inactive). The GI50 [34] was > 100 µM (inactive), the GI50 [35] was > 100 µM (inactive) and the GI50 [36] was > 100 µM (inactive). For the same compound, the GI50 [37] was > 100 µM (inactive), the GI50 [38] was > 100 µM (inactive) and the GI50 [39] was > 100 µM (inactive). For the same compound, the GI50 [40] was > 100 µM (inactive), the GI50 [41] was > 100 µM (inactive) and the GI50 [58] was > 100 µM (inactive). For the same compound, the GI50 [42] was > 100 µM (inactive), the GI50 [43] was > 100 µM (inactive) and the GI50 [44] was > 100 µM (inactive). The GI50 [45] was > 100 µM (inactive), the GI50 [46] was > 100 µM (inactive) and the GI50 [48] was > 100 µM (inactive). The GI50 [49] was > 100 µM (inactive), the GI50 [50] was > 100 µM (inactive) and the GI50 [51] was > 100 µM (inactive). The GI50 [52] was > 100 µM (inactive) and the GI50 [53] was > 100 µM (inactive).
With COc1cccc(Nc2nc3c([nH]2)c(=O)n(C)c(=O)n3C)c1 the GI50 [1] was > 10 µM (inactive), the GI50 [2] was > 10 µM (inactive) and the GI50 [3] was > 10 µM (inactive). For the same compound, the GI50 [4] was > 10 µM (inactive), the GI50 [5] was > 10 µM (inactive) and the GI50 [6] was > 10 µM (inactive). The GI50 [8] was > 10 µM (inactive), the GI50 [10] was > 10 µM (inactive) and the GI50 [11] was > 10 µM (inactive). The GI50 [12] was > 10 µM (inactive), the GI50 [13] was > 10 µM (inactive) and the GI50 [16] was > 10 µM (inactive). The GI50 [17] was > 10 µM (inactive), the GI50 [18] was > 10 µM (inactive) and the GI50 [19] was > 10 µM (inactive). For the same compound, the GI50 [20] was > 10 µM (inactive), the GI50 [21] was > 10 µM (inactive) and the GI50 [22] was > 10 µM (inactive). The GI50 [23] was > 10 µM (inactive), the GI50 [24] was > 10 µM (inactive) and the GI50 [25] was > 10 µM (inactive). The GI50 [26] was > 10 µM (inactive), the GI50 [27] was > 10 µM (inactive) and the GI50 [29] was > 10 µM (inactive). The GI50 [30] was > 10 µM, the GI50 [32] was > 10 µM (inactive) and the GI50 [33] was > 10 µM (inactive). For the same compound, the GI50 [34] was > 10 µM (inactive), the GI50 [35] was > 10 µM (inactive) and the GI50 [39] was > 10 µM (inactive). For the same compound, the GI50 [40] was > 10 µM (inactive), the GI50 [41] was > 10 µM (inactive) and the GI50 [42] was > 10 µM (inactive). For the same compound, the GI50 [43] was > 10 µM (inactive), the GI50 [44] was > 10 µM (inactive) and the GI50 [45] was > 10 µM (inactive). For the same compound, the GI50 [47] was > 10 µM (inactive), the GI50 [48] was > 10 µM (inactive) and the GI50 [49] was > 10 µM (inactive). For the same compound, the GI50 [50] was 7.01 µM (inactive), the GI50 [51] was > 10 µM (inactive) and the GI50 [52] was > 10 µM (inactive). For the same compound, the GI50 [53] was > 10 µM (inactive).
